Assay results reported in article PMC8400246, “Antimicrobial Activity and Action Mechanisms of Arg-Rich Short Analog Peptides Designed from the C-Terminal Loop Region of American Oyster Defensin (AOD)” (Marine Drugs, 2021).
Positions of bridges follow the written chain, without caps; N, C: chain ends. Residues, ends and D or L forms follow the SMILES beside them.

Columns and labels:
[1] = system: S. mutans KCCM40105; test: Ultrasensitive radial diffusion assay (URDA), MEC; format: cell-based, Streptococcus mutans; conditions: S. mutans KCCM40105, Gram +, pH 6.6, 37 °C, triplicate, averaged
Experimental: (§1) The antimicrobial activity of the AOD analogs was assessed with an ultrasensitive radial diffusion assay (URDA), as described previously. The antimicrobial activity of the analogs (from 31.3 to 1000 μg/mL, 5 μL volume) was tested against several bacteria, including Bacillus subtilis KCTC1021, Streptococcus mutans KCCM40105, Aeromonas hydrophila KCTC2358, Escherichia coli D31, E. coli ML35p, Pseudomonas aeruginosa KCTC2004, Salmonella enterica KCTC2514, and Shigella sonnei KCTC2009. In addition, Cutibacterium acnes KCTC3314, Staphylococcus epidermidis KCTC1917, and Candida albicans KCTC7965 were used for the anti-acne activity test. All except C. acnes KCTC3314 were grown overnight for 18 h in tryptic soy broth (TSB; for bacteria) or Sabouraud dextrose broth (SDB; for C. albicans) at the appropriate temperature (25 °C for A. hydrophila, 37 °C for the others). C. acnes was grown for 72 h in reinforced clostridial medium (RCM) under anaerobic conditions with an anaerobic gas-generating pouch (GasPak EZ; Becton Dickinson and Company, Sparks, MD, USA) at 37 °C. Following overnight or 72-h incubation, the bacterial and C. albicans suspensions were diluted to a McFarland turbidity standard level of 0.5 (Vitek Colorimeter #52-1210; Hach, Loveland, CO, USA) corresponding to approximately 10^8 colony forming units (CFU)/mL for bacteria and 10^6 CFU/mL for C. albicans. Diluted bacterial or C. albicans suspension (0.5 mL) was added to 9.5 mL underlay gel containing 5 × 10^6 or 5 × 10^4 CFU/mL in 10 mM phosphate buffer (pH 6.6) with 0.03% TSB (or RCM) or 0.03% SDB and 1% Type I low-electroendosmosis agarose. The AOD analogs were serially diluted two-fold in 5 µL acidified water (0.01% acetic acid; HAc) and each dilution was added to 2.5-mm diameter wells in the 1-mm thick underlay gel. After incubation for 3 h at either 25 °C (for A. hydrophila) or 37 °C (for the others), the bacterial or yeast suspension was overlaid with 10 mL double-strength overlay gel containing 6% TSB, RCM, or SDB with 10 mM phosphate buffer (pH 6.6) in 1% agarose. Plates were incubated for an additional 18–24 h (72 h for C. acnes) and the clearing zone diameters were measured. After subtracting the diameter of the well (2.5 mm), the clearing zone diameter was expressed in units (0.1 mm = 1 U).
(§2) The minimal effective concentration (MEC; μg/mL) of the AOD analogs was calculated as the X-intercept of a plot of clearing zone diameter units against the log10 of the peptide concentration. Piscidin 1, an α-helical AMP isolated from hybrid striped bass (Morone saxatilis × Morone chrysops) was used as a positive control.

[2] = system: P. aeruginosa KCTC2004; test: Ultrasensitive radial diffusion assay (URDA), MEC; format: cell-based, Pseudomonas aeruginosa; conditions: P. aeruginosa KCTC2004, Gram -, pH 6.6, 37 °C, triplicate, averaged
Experimental: as §1, §2

[3] = system: 100-bp DNA ladder and DNA polymerase; test: Competitive binding between DNA and DNA polymerase; conditions: 1 μg peptide, 0.2 μg 100-bp DNA ladder, DNA polymerase 1.0 μL (5 units/μL), 37 °C, 60 min
Experimental: To assess the preferential binding ability of the AOD analogs to DNA or DNA polymerase, a competitive binding assay was performed. Briefly, AOD analog was added to a reaction mixture containing DNA or DNA polymerase and incubated for 60 min at 37 °C. […] Piscidin 1 and 0.01% HAc were the positive and negative controls, respectively.

[4] = system: S. sonnei KCTC2009; test: Ultrasensitive radial diffusion assay (URDA), MEC; format: cell-based, Shigella sonnei; conditions: S. sonnei KCTC2009, Gram -, pH 6.6, 37 °C, triplicate, averaged
Experimental: as §1, §2

[5] = system: C. albicans KCTC7965; test: Ultrasensitive radial diffusion assay (URDA), MEC; format: cell-based, Candida albicans; conditions: C. albicans KCTC7965, yeast, SDB, pH 6.6, 37 °C, triplicate, averaged
Experimental: as §1, §2

[6] = system: S. epidermidis KCTC1917; test: Ultrasensitive radial diffusion assay (URDA), MEC; format: cell-based, Staphylococcus epidermidis; conditions: S. epidermidis KCTC1917, Gram +, pH 6.6, 37 °C, triplicate, averaged
Experimental: as §1, §2

[7] = system: B. subtilis KCTC1021; test: Ultrasensitive radial diffusion assay (URDA), MEC; format: cell-based, Bacillus subtilis; conditions: B. subtilis KCTC1021, Gram +, 10 mM phosphate buffer pH 6.6, 37 °C, X-intercept of clearing zone vs log10 concentration, triplicate, averaged
Experimental: as §1, §2

[8] = system: 100-bp DNA ladder; test: DNA binding assay (electrophoretic mobility shift); conditions: 1 μg analog with 0.2 μg 100-bp DNA ladder, 37 °C, 60 min, 1.8% agarose gel with EtBr
Experimental: To evaluate the binding ability of the AOD analogs to intracellular components, a DNA binding assay was performed as previously described with minor modifications. The DNA-binding ability of the AOD analogs was assessed through observation of the inhibition of migration of DNA bands through agarose gels. A commercial 100-bp DNA ladder (0.2 μg) (Bioneer Corp., Daejeon, South Korea) was mixed with each analog (1 μg) in 0.01% acetic acid, and the resulting mixture was incubated at 37 °C for 60 min and then electrophoresed on 1.8% agarose gels containing 0.5 μg/mL ethidium bromide (EtBr). HAc (0.01%) was used as a negative control.
To determine the concentration required for the interaction of AOD analogs with DNA, a DNA binding assay was performed with various mixing ratios of analog A3 (0.25–1.0 μg/mL) and 100-bp DNA ladder (0.1–0.4 μg), as described above.

[9] = system: A. hydrophila KCTC2358; test: Ultrasensitive radial diffusion assay (URDA), MEC; format: cell-based, Aeromonas hydrophila; conditions: A. hydrophila KCTC2358, Gram -, pH 6.6, 25 °C, triplicate, averaged
Experimental: as §1, §2

[10] = system: E. coli DH5α genomic DNA (16S ribosomal gene); test: DNA amplification (PCR) inhibition assay; format: biochemical, Escherichia coli; conditions: 1.5 µg of each analog, 0.2 µg E. coli DH5α gDNA, 30 cycles
Experimental: To determine whether AOD analogs target DNA amplification, the ability of the analogs to inhibit DNA amplification was assessed using E. coli DH5α genomic DNA (gDNA). Total gDNA was extracted using the phenol–chloroform method, as described previously. To assess the inhibition of DNA amplification, 1.5 µg AOD analog was added to the polymerase chain reaction (PCR) mixture. The PCR solution consisted of 0.2 µg purified gDNA, 5 µL 10× PCR buffer with MgCl2, 4 µL of each dNTP at 2.5 mM, 0.25 μL Ex Taq polymerase (Takara Bio, Shiga, Japan), 2.0 pmol each of primers 27F (5′-[…]-3′) and 1492R (5′-TACGGCTACCTTGTTACGA-CTT-3′), and up to 50 µL sterile distilled water. The PCR thermal cycling conditions were as follows: initial denaturation at 94 °C for 5 min; 30 cycles of 94 °C for 30 s, 55 °C for 30 s, and 72 °C for 2 min; and a final extension for 10 min at 72 °C. PCR was conducted using a Type 9700 Thermal Cycler (Perkin-Elmer, Norwalk City, CA, USA). The PCR products were confirmed through 1.5% agarose gel electrophoresis with 0.5 μg/mL EtBr. Piscidin 1 was used as a positive control and 0.01% HAc was used as a negative control.

[11] = system: E. coli ML35p; test: Ultrasensitive radial diffusion assay (URDA), MEC; format: cell-based, Escherichia coli; conditions: Gram -, pH 6.6, 37 °C, triplicate, averaged
Experimental: as §1, §2

[12] = system: E. coli D31; test: Ultrasensitive radial diffusion assay (URDA), MEC; format: cell-based, Escherichia coli; conditions: E. coli D31, Gram -, pH 6.6, 37 °C, triplicate, averaged
Experimental: as §1, §2

[13] = system: S. enterica KCTC2514; test: Ultrasensitive radial diffusion assay (URDA), MEC; format: cell-based, Salmonella enterica; conditions: S. enterica KCTC2514, Gram -, pH 6.6, 37 °C, triplicate, averaged
Experimental: as §1, §2

[14] = system: C. acnes KCTC3314; test: Ultrasensitive radial diffusion assay (URDA), MEC; format: cell-based, Cutibacterium acnes; conditions: C. acnes KCTC3314, Gram +, anaerobic, RCM, 72 h, 37 °C, triplicate, averaged
Experimental: as §1, §2

[15] = system: V. parahaemolyticus gDNA; test: Bacterial gDNA binding (electrophoretic mobility shift); set-up: species or system Vibrio parahaemolyticus; conditions: 1 μg of analog with V. parahaemolyticus gDNA, agarose gel
Experimental: To evaluate the binding ability of the AOD analogs to intracellular components, a DNA binding assay was performed as previously described with minor modifications. The DNA-binding ability of the AOD analogs was assessed through observation of the inhibition of migration of DNA bands through agarose gels. […] HAc (0.01%) was used as a negative control.

SMILES: CC(C)C[C@@H]1NC(=O)[C@H](CCCNC(=N)N)NC(=O)[C@H](CC(C)C)NC(=O)[C@H](CCCNC(=N)N)NC(=O)[C@H](Cc2c[nH]c3ccccc23)NC(=O)[C@H](CCCNC(=N)N)NC(=O)[C@@H](N)CSSC[C@@H](C(=O)O)NC(=O)[C@H](CCCNC(=N)N)NC1=O [Analog A2] (H-CRWRLRLRC-OH; disulfide 1-9)
- Minimal Effective Concentration [1]: 9.9 µg/mL
- Minimal Effective Concentration [2]: 7.6 µg/mL
- competitive binding between DNA and DNA polymerase (electrophoretic mobility of DNA) [3]: inhibited
- Minimal Effective Concentration [4]: 18.0 µg/mL
- Minimal Effective Concentration [5]: >125.0 µg/mL
- Minimal Effective Concentration [6]: 24.0 µg/mL
- Minimal Effective Concentration [7]: 3.8 µg/mL
- electrophoretic mobility of the DNA (DNA-binding ability) [8]: inhibited
- Minimal Effective Concentration [9]: 14.0 µg/mL
- inhibition of DNA amplification (PCR) [10]: did not inhibit
- Minimal Effective Concentration [11]: 13.0 µg/mL
- Minimal Effective Concentration [12]: 2.0 µg/mL
- Minimal Effective Concentration [13]: 20.0 µg/mL
- Minimal Effective Concentration [14]: >100.0 µg/mL

SMILES: N=C(N)NCCC[C@@H]1NC(=O)[C@H](CCCNC(=N)N)NC(=O)[C@H](Cc2c[nH]c3ccccc23)NC(=O)CNC(=O)[C@H](Cc2c[nH]c3ccccc23)NC(=O)[C@H](CCCNC(=N)N)NC(=O)[C@H](CCCNC(=N)N)NC(=O)[C@@H](N)CSSC[C@@H](C(N)=O)NC1=O [Analog A4] (H-CRRWGWRRC-NH2; disulfide 1-9)
- Minimal Effective Concentration [1]: 10.5 µg/mL
- Minimal Effective Concentration [2]: 29.5 µg/mL
- competitive binding between DNA and DNA polymerase (electrophoretic mobility of DNA) [3]: inhibited
- Minimal Effective Concentration [5]: 17.2 µg/mL
- Minimal Effective Concentration [6]: 15.8 µg/mL
- electrophoretic mobility of V. parahaemolyticus gDNA [15]: inhibited
- Minimal Effective Concentration [7]: 2.5 µg/mL
- electrophoretic mobility of the DNA (DNA-binding ability) [8]: inhibited
- inhibition of DNA amplification (PCR) [10]: partially or completely inhibited
- Minimal Effective Concentration [11]: 2.2 µg/mL
- Minimal Effective Concentration [12]: 5.7 µg/mL
- Minimal Effective Concentration [14]: 27.1 µg/mL
